According to patent US4333873A, “Pharmacologically active peptides” (Eli Lilly and Company, priority 1981, dated 1982):
Structures can show the parent of a compound that is named as a salt.

Test system: mouse
Assay: mouse hot plate test (analgesic activity)
Type: in vivo
Settings: hot plate 52° C., 15 minutes after administration, latency to jump
Method: In this test, a mouse is placed inside an upright acrylic cylinder comprising, as its base, a hot plate surface which is maintained at 52° C. The mouse is given, orally or by subcutaneous injection, a predetermined amount of test compound dissolved or suspended in a suitable carrier, and, 15 minutes after administration of the test compound, the mouse is placed on the hot plate surface. The latency in seconds until the mouse jumps from the hot plate surface is measure. […] This must occur in a dose range which produces no motor incoordination or incapacitation. The following Table records the ED50 results obtained from this test.

C=CCN(C(=O)CNC(=O)[C@@H](C)NC(=O)[C@@H](N)Cc1ccc(O)cc1)[C@@H](Cc1ccccc1)C(N)=O [Example 1, L-Tyrosyl-D-alanyl-glycyl-L-(N^α -allyl)phenylalanine Amide, Acetate Salt]
Analgesic Activity, Hot Plate Test ED50, mg./kg. subcutaneous: 0.01 mg/kg

C[C@@H](NC(=O)[C@@H](N)Cc1ccc(O)cc1)C(=O)NCC(=O)N(CC1CC1)[C@@H](Cc1ccccc1)C(N)=O [Example 2, L-Tyrosyl-D-alanyl-glycyl-L-(N^α -cyclopropylmethyl)phenylalanine Amide, Acetate Salt]
Analgesic Activity, Hot Plate Test ED50, mg./kg. subcutaneous: 0.012 mg/kg
